Measurements: ChEMBL document CHEMBL4118193, “1,2,3,4,6-Penta-O-galloyl-β-d-glucose suppresses colon cancer through induction of tumor suppressor” (Bioorg Med Chem Lett, 2018)
Activity calls are given as the source filed them. The rule behind the calls is not given here.

Assays:
[1] = tested on: HT-29; assay: Cell cycle arrest in human HT-29 cells assessed as accumulation at S phase at 2.5 uM after 48 hrs (reference value: 9.7%); format: functional
[2] = tested on: HCT-116; assay: Induction of apoptosis in human HCT116 cells assessed as cleaved caspase-3 protein level at 10 uM after 48 hrs by Western blot method relative to caspase-3; format: functional
[3] = tested on: HT-29; assay: Induction of apoptosis in human HT-29 cells assessed as p53 protein level at 1 uM after 48 hrs by Western blot method relative to beta-actin; format: functional
[4] = tested on: HT-29; assay: Induction of apoptosis in human HT-29 cells assessed as caspase-3 protein level at 10 uM after 48 hrs by Western blot method relative to beta-actin; format: functional
[5] = tested on: HCT-116; assay: Induction of apoptosis in human HCT116 cells assessed as early apoptotic cells at 2.5 uM after 48 hrs by Annexin-V and dead cell assay (reference value: 1.70%); format: functional
[6] = tested on: HT-29; assay: Cell cycle arrest in human HT-29 cells assessed as accumulation at S phase at 10 uM after 48 hrs (reference value: 9.7%); format: functional
[7] = tested on: HCT-116; assay: Induction of apoptosis in human HCT116 cells assessed as cyclin E protein level at 5 uM after 48 hrs by Western blot method relative to beta-actin; format: functional
[8] = tested on: HCT-116; assay: Induction of apoptosis in human HCT116 cells assessed as late apoptotic cells at 5 uM after 48 hrs by Annexin-V and dead cell assay (reference value: 1.45%); format: functional
[9] = tested on: HT-29; assay: Cell cycle arrest in human HT-29 cells assessed as accumulation at subG1 phase after 48 hrs; format: functional, cell-based
[10] = tested on: HT-29; assay: Induction of apoptosis in human HT-29 cells after 48 hrs by Annexin-V and dead cell assay; format: functional, cell-based
[11] = tested on: HT-29; assay: Induction of apoptosis in human HT-29 cells assessed as Bcl-2 protein level at 2.5 uM after 48 hrs by Western blot method relative to beta-actin; format: functional
[12] = tested on: CCD-18Co; assay: Cytotoxicity against human CCD-18Co cells at 1 to 10 uM after 48 hrs by CytoTox-96 non-radioactive assay; format: cell-based
[13] = tested on: HT-29; assay: Induction of apoptosis in human HT-29 cells assessed as cyclin E protein level at 1 uM after 48 hrs by Western blot method relative to beta-actin; format: functional
[14] = tested on: HCT-116; assay: Induction of apoptosis in human HCT116 cells assessed as CDK2 protein level at 2.5 uM after 48 hrs by Western blot method relative to beta-actin; format: functional
[15] = tested on: HT-29; assay: Induction of apoptosis in human HT-29 cells assessed as in p21 protein level at 5 uM after 48 hrs by Western blot method relative to beta-actin; format: functional
[16] = tested on: HT-29; assay: Induction of apoptosis in human HT-29 cells assessed as Bcl-2 protein level at 10 uM after 48 hrs by Western blot method relative to beta-actin; format: functional
[17] = tested on: HCT-116; assay: Cell cycle arrest in human HCT116 cells assessed as accumulation at S phase at 2.5 uM after 48 hrs (reference value: 10.9%); format: functional
[18] = tested on: HT-29; assay: Cell cycle arrest in human HT-29 cells assessed as accumulation at G2/M phase at 1 uM after 48 hrs (reference value: 14.7%); format: functional
[19] = tested on: HCT-116; assay: Induction of apoptosis in human HCT116 cells assessed as p21 protein level at 1 uM after 48 hrs by Western blot method relative to beta-actin; format: functional
[20] = tested on: HCT-116; assay: Induction of apoptosis in human HCT116 cells assessed as in p53 protein level at 5 uM after 48 hrs by Western blot method relative to beta-actin; format: functional
[21] = tested on: HCT-116; assay: Induction of apoptosis in human HCT116 cells assessed as cyclin E protein level at 2.5 uM after 48 hrs by Western blot method relative to beta-actin; format: functional
[22] = tested on: HCT-116; assay: Induction of apoptosis in human HCT116 cells assessed as late apoptotic cells at 1 uM after 48 hrs by Annexin-V and dead cell assay (reference value: 1.45%); format: functional
[23] = tested on: HT-29; assay: Induction of apoptosis in human HT-29 cells assessed as DNA fragmentation at 1 to 10 uM after 48 hrs by ELISA; format: functional, cell-based
[24] = tested on: HCT-116; assay: Cell cycle arrest in human HCT116 cells assessed as accumulation at S phase at 10 uM after 48 hrs (reference value: 10.9%); format: functional
[25] = tested on: HCT-116; assay: Induction of apoptosis in human HCT116 cells assessed as live cells at 10 uM after 48 hrs by Annexin-V and dead cell assay (reference value: 96.75%); format: functional
[26] = tested on: HCT-116; assay: Induction of apoptosis in human HCT116 cells assessed as live cells at 1 uM after 48 hrs by Annexin-V and dead cell assay (reference value: 96.75%); format: functional
[27] = tested on: HT-29; assay: Induction of apoptosis in human HT-29 cells assessed as cyclin E protein level at 10 uM after 48 hrs by Western blot method relative to beta-actin; format: functional
[28] = tested on: HT-29; assay: Cell cycle arrest in human HT-29 cells assessed as accumulation at G0/G1 phase at 2.5 uM after 48 hrs (reference value: 53.9%); format: functional
[29] = tested on: HCT-116; assay: Induction of apoptosis in human HCT116 cells assessed as in p53 protein level at 10 uM after 48 hrs by Western blot method relative to beta-actin; format: functional
[30] = tested on: HCT-116; assay: Induction of apoptosis in human HCT116 cells assessed as cleaved caspase-3 protein level at 1 uM after 48 hrs by Western blot method relative to caspase-3; format: functional
[31] = tested on: HCT-116; assay: Induction of apoptosis in human HCT116 cells assessed as cyclin E protein level at 10 uM after 48 hrs by Western blot method relative to beta-actin; format: functional
[32] = tested on: HCT-116; assay: Induction of apoptosis in human HCT116 cells assessed as necrotic cells at 5 uM after 48 hrs by Annexin-V and dead cell assay (reference value: 0.10%); format: functional
[33] = tested on: HT-29; assay: Anticlonogenic activity against human HT-29 cells assessed as inhibition of colony formation after 4 to 5 days by crystal violet staining-based assay; format: functional, cell-based
[34] = tested on: HCT-116; assay: Cell cycle arrest in human HCT116 cells assessed as accumulation at G0/G1 phase at 2.5 uM after 48 hrs (reference value: 38.5%); format: functional
[35] = tested on: HCT-116; assay: Induction of apoptosis in human HCT116 cells assessed as necrotic cells at 10 uM after 48 hrs by Annexin-V and dead cell assay (reference value: 0.10%); format: functional
[36] = tested on: HCT-116; assay: Cell cycle arrest in human HCT116 cells assessed as accumulation at G0/G1 phase at 10 uM after 48 hrs (reference value: 38.5%); format: functional
[37] = tested on: HCT-116; assay: Induction of apoptosis in human HCT116 cells assessed as live cells at 5 uM after 48 hrs by Annexin-V and dead cell assay (reference value: 96.75%); format: functional
[38] = tested on: HCT-116; assay: Induction of apoptosis in human HCT116 cells assessed as Bcl-2 protein level at 5 uM after 48 hrs by Western blot method relative to beta-actin; format: functional
[39] = tested on: HCT-116; assay: Induction of apoptosis in human HCT116 cells assessed as necrotic cells at 1 uM after 48 hrs by Annexin-V and dead cell assay (reference value: 0.10%); format: functional
[40] = tested on: HT-29; assay: Cell cycle arrest in human HT-29 cells assessed as accumulation at G2/M phase at 5 uM after 48 hrs (reference value: 14.7%); format: functional
[41] = tested on: HT-29; assay: Induction of apoptosis in human HT-29 cells assessed as caspase-3 protein level at 5 uM after 48 hrs by Western blot method relative to beta-actin; format: functional

## O=C(OC[C@H]1O[C@@H](OC(=O)c2cc(O)c(O)c(O)c2)[C@H](OC(=O)c2cc(O)c(O)c(O)c2)[C@@H](OC(=O)c2cc(O)c(O)c(O)c2)[C@@H]1OC(=O)c1cc(O)c(O)c(O)c1)c1cc(O)c(O)c(O)c1 [PENTAGALLOYL GLUCOSE]
[1]
  Activity: 13.4%
[2]
  fold change (FC): 1.7
[3]
  fold change (FC): 0.7
[4]
  fold change (FC): 5.8
[5]
  Activity: 1.35%
[6]
  Activity: 13.9%
[7]
  fold change (FC): 0.6
[8]
  Activity: 4.35%
[9]
  Activity: Dose-dependent effect
[10]
  Activity: Dose-dependent effect
[11]
  fold change (FC): 0.3
[12]
  Activity: Non-Toxic
[13]
  fold change (FC): 1.2
[14]
  fold change (FC): 0.8
[15]
  fold change (FC): 1.8
[16]
  fold change (FC): 0.3
[17]
  Activity: 9%
[18]
  Activity: 14.8%
[19]
  fold change (FC): 1.3
[20]
  fold change (FC): 4.9
[21]
  fold change (FC): 1.6
[22]
  Activity: 0.65%
[23]
  Activity: Active
[24]
  Activity: 11.8%
[25]
  Activity: 90.45%
[26]
  Activity: 98.25%
[27]
  fold change (FC): 0.1
[28]
  Activity: 47.2%
[29]
  fold change (FC): 8.1
[30]
  fold change (FC): 1
[31]
  fold change (FC): 0.5
[32]
  Activity: 0.45%
[33]
  Activity: Dose-dependent effect
[34]
  Activity: 34%
[35]
  Activity: 0.25%
[36]
  Activity: 32.2%
[37]
  Activity: 93.35%
[38]
  fold change (FC): 1.2
[39]
  Activity: 0.1%
[40]
  Activity: 16.3%
[41]
  fold change (FC): 5.9
